Measured values: patent US9656981B2, “Peripherally-acting cannabinoid receptor agonists for chronic pain” (The Regents of the University of California, priority 2012, dated 2017)
Where two headings read alike, the source gives them in different places.

Columns and labels:
CB1R = CB1R (Homo sapiens, UniProt P21554); assay: CB1R radioligand displacement binding assay (CP55940 radioligand)
Experimental: Heterologous competition binding assays were performed to calculate receptor affinities. Unlabeled SR141716 or SR144528 were used as appropriate controls for non-specific binding (NSB) in the assay. Calculation of the equilibrium dissociation constant (Ki) was performed using the Cheng-Prusoff equation.

CB2R = CB2R (Homo sapiens, UniProt P34972); assay: CB2R radioligand displacement binding assay (CP55940 radioligand)
Sequence of CB2R (P34972 whole entry): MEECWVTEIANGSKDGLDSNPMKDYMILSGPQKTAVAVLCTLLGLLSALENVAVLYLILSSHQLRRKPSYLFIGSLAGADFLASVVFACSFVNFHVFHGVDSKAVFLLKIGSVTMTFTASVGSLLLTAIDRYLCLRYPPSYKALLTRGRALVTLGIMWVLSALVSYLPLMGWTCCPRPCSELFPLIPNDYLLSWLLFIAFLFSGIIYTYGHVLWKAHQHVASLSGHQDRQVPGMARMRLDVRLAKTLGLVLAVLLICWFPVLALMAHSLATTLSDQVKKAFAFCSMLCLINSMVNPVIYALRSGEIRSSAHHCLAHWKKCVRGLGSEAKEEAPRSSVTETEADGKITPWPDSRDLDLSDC
Experimental: Detailed radioligand displacement assays (using the well-characterized CBR agonist […] as the radioligand) were conducted to determine the affinity (Ki) of the test compounds for CB1R and CB2R as has been previously described by our group^112,113. Heterologous competition binding assays were performed to calculate receptor affinities. Unlabeled SR141716 or SR144528 were used as appropriate controls for non-specific binding (NSB) in the assay. Calculation of the equilibrium dissociation constant (Ki) was performed using the Cheng-Prusoff equation.

[1] = Table 1, CP55940 radioligand, read-out: CB1_KI_CP

Sequence of CB1R (P21554 whole entry): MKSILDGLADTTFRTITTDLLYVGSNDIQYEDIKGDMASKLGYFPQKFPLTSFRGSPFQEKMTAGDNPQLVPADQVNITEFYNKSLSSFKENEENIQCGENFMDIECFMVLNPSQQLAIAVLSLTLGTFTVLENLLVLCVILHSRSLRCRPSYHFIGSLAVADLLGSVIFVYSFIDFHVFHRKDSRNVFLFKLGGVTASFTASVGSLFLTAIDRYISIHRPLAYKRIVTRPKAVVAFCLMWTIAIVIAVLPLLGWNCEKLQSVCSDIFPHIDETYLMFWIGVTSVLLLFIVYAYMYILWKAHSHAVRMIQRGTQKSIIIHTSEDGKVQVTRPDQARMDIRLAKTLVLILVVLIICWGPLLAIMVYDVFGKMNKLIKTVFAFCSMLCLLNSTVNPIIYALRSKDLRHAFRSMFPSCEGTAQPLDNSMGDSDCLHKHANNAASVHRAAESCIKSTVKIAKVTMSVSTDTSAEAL

O=C(c1cccc2ccccc12)c1cn(CCN2CCOCC2)c2ccccc12 [Compound 39, 1-[2-(morpholin-4-yl)ethyl]-3-(naphthalene-1-carbonyl)-1H-indole, reference compound]
Ki (CB1R; [1]): 81.6 nM

C1=C(CCN2CCOCC2)c2ccccc2/C1=C/c1cccc2cc[nH]c12 [Compound 17, 7-{[(1E)-3-[2-(morpholin-4-yl)ethyl]-1H-inden-1-ylidene]methyl}-1H-indole]
Ki (CB1R; [1]): 107 nM
Ki (CB2R): 8.7 nM

C1=C(CCN2CCOCC2)c2ccccc2/C1=C/c1cccc2ccc3ccccc3c12 [Compound 13, 4-{2-[(1E)-1-(phenanthren-4-ylmethylidene)-1H-inden-3-yl]ethyl} morpholine]
Ki (CB1R; [1]): 22.9 nM
Ki (CB2R): 6 nM

CCOC(=O)CCCn1cc(C(=O)c2cccc3ccccc23)c2ccccc21 [Compound 50, ethyl 4-[3-(naphthalene-1-carbonyl)-1H-indol-1-yl]butanoate]
Ki (CB1R; [1]): 747 nM

Brc1ccccc1/C=C1\C=C(CCN2CCOCC2)c2ccccc21 [Compound 25, 4-{2-[(1E)-1-[(2-bromophenyl)methylidene]-1H-inden-3-yl]ethyl} morpholine]
Ki (CB1R; [1]): 647 nM
Ki (CB2R): 206 nM

COc1ccc(C(=O)c2cn(CC[N+]3(C)CCOCC3)c3ccccc23)c2ccccc12 [Compound 41, 4-{2-[3-(4-methoxynaphth-alene-1-carbonyl)-1H-indol-1-yl]ethyl}-4-methylmorpholin-4-ium iodide]
Ki (CB1R; [1]): 4080 nM

C1=C(CCN2CCOCC2)c2ccccc2/C1=C/c1cccs1 [Compound 30, 4-{2-[(1E)-1-(thiophen-2-ylmethylidene)-1H-indene-3-yl]ethyl} morpholine]
Ki (CB1R; [1]): 8530 nM
Ki (CB2R): 3020 nM

C[N+]1(CCC2=C/C(=C\c3cccc4ccccc34)c3ccccc32)CCOCC1 [Compound 35, 4-methyl-4-{2-[(1E)-1-(naphthalen-1-ylmethylidene)-1H-inden-3-yl]ethyl} morpholin-4-ium iodide]
Ki (CB1R; [1]): 982 nM

C1=C(CCN2CCOCC2)c2ccccc2/C1=C/c1ccc2ccccc2c1 [Compound 20, 4-{2-[(1E)-1-(naphthalen-2-ylmethylidene)-1H-inden-3-yl]ethyl} morpholine]
Ki (CB1R; [1]): 134 nM
Ki (CB2R): 24.4 nM

COc1ccccc1/C=C1\C=C(CCN2CCOCC2)c2ccccc21 [Compound 18, 4-{2-[(1E)-1-[(2-methoxyphenyl)meth-ylidene]-1H-inden-3-yl]ethyl} morpholine]
Ki (CB1R; [1]): 149 nM
Ki (CB2R): 29.8 nM

CCCCCn1cc(C(=O)c2ccc(C(=O)OCC)c3ccccc23)c2ccccc21 [Compound 58, ethyl 4-(1-pentyl-1H-indole-3-carbonyl)naphth-alene-1-carboxylate]
Ki (CB1R; [1]): 115 nM
Ki (CB2R): 53.9 nM

CCCCCn1cc(C(=O)c2cccc3ccccc23)c2ccccc21 [Compound 1, 3-(naphthalene-1-carbonyl)-1-pentyl-1H-indole, reference compound]
Ki (CB1R; [1]): 4.31 nM
Ki (CB2R): 7.38 nM

Cc1ccc(C(=O)c2cn(CCN3CCOCC3)c3ccccc23)c2ccccc12 [Compound 44, 3-(4-methyl-naphthalene-1-carbonyl)-1-[2-(morpholin-4-yl)ethyl]-1H-indole, reference compound]
Ki (CB1R; [1]): 20.2 nM

C1=C(CCN2CCOCC2)c2ccccc2/C1=C/c1cccc(-c2ccccc2)c1 [Compound 37, 4-{2-[(1E)-1-[(3-phenylphenyl)methylidene]-1H-inden-3-yl]ethyl} morpholine]
Ki (CB1R; [1]): 2600 nM
Ki (CB2R): 132 nM

CCCCCCC1=C/C(=C\c2cccc3ccccc23)c2ccccc21 [Compound 21, 1-{[(1E)-3-hexyl-1H-inden-1-ylidene]methyl} naphthalene]
Ki (CB2R): 1450 nM

Ic1ccccc1/C=C1\C=C(CCN2CCOCC2)c2ccccc21 [Compound 23, 4-{2-[(1E)-1-[(2-iodophenyl)methyl-idene]-1H-inden-3-yl]ethyl} morpholine]
Ki (CB1R; [1]): 607 nM
Ki (CB2R): 109 nM

Fc1ccccc1/C=C1\C=C(CCN2CCOCC2)c2ccccc21 [Compound 28, 4-{2-[(1E)-1-[(2-fluorophenyl)methylidene]-1H-inden-3-yl]ethyl} morpholine]
Ki (CB1R; [1]): 1000 nM
Ki (CB2R): 429 nM

C1=C(CCN2CCOCC2)c2ccccc2/C1=C/c1ccccc1 [Compound 29, 4-{2-[(1E)-1-(phenyl-methylidene)-1H-inden-3-yl]ethyl} morpholine]
Ki (CB1R; [1]): 1300 nM
Ki (CB2R): 295 nM

COc1ccc(C(=O)c2cn(CCN3CCOCC3)c3ccccc23)c2ccccc12 [Compound 42, 3-(4-methoxynaphtha-lene-1-carbonyl)-1-[2-(morpholin-4-yl)ethyl]-1H-indole, reference compound]
Ki (CB1R; [1]): 88.1 nM

C1=C(CCN2CCOCC2)c2ccccc2/C1=C/c1ccnc2ccccc12 [Compound 14, 4-{[(1E)-3-[2-(morpholin-4-yl)ethyl]-1H-inden-1-ylidene]methyl} quinoline]
Ki (CB1R): 23 nM
Ki (CB1R; [1]): 23.3 nM
Ki (CB2R): 12.1 nM

Clc1ccccc1/C=C1\C=C(CCN2CCOCC2)c2ccccc21 [Compound 26, 4-{2-[(1E)-1-[(2-chlorophenyl)methylidene]-1H-inden-3-yl]ethyl} morpholine]
Ki (CB1R; [1]): 862 nM

C1=C(CCN2CCOCC2)c2ccccc2/C1=C/c1cccc2cnccc12 [Compound 22, 5-{[(1E)-3-[2-(morpholin-4-yl)ethyl]-1H-inden-1-ylidene]methyl} isoquinoline]
Ki (CB1R; [1]): 454 nM
Ki (CB2R): 51.4 nM

CCCCCn1cc(C(=O)c2ccc(C(=O)NC)c3ccccc23)c2ccccc21 [Compound 60, N-methyl-4-(1-pentyl-1H-indole-3-carbonyl) naphthalene-1-carboxamide]
Ki (CB1R; [1]): 127 nM
Ki (CB2R): 303 nM

CCCCCC1=C/C(=C\c2cccc3ccccc23)c2ccccc21 [Compound 19, 1-{[(1E)-3-pentyl-1H-inden-1-ylidene]methyl} naphthalene, reference compound]
Ki (CB1R; [1]): 17.2 nM
Ki (CB2R): 163 nM

O=C(c1cccc2ccccc12)c1cn(CCCCCF)c2cccc(F)c12 [Compound 66, 4-fluoro-1-(5-fluoropentyl)-3-(naphthalene-1-carbonyl)-1H-indole]
Ki (CB1R; [1]): 4.38 nM
Ki (CB2R): 2.94 nM

Cc1ccc(C(=O)c2cn(CC[N+]3(C)CCOCC3)c3ccccc23)c2ccccc12 [Compound 43, 4-methyl-4-{2-[3-(4-methyl-naphthalene-1-carbonyl)-1H-indol-1-yl]ethyl}morpholin-4-ium iodide]
Ki (CB1R; [1]): 4170 nM

CCCCCn1cc(C(=O)c2ccc(C(N)=O)c3ccccc23)c2ccccc21 [Compound 59, 4-(1-pentyl-1H-indole-3-carbonyl)naph-thalene-1-carboxamide]
Ki (CB1R; [1]): 96.6 nM
Ki (CB2R): 135 nM

C1=C(CCN2CCOCC2)c2ccccc2/C1=C/c1ccc2c3c(cccc13)CC2 [Compound 12, 4-{2-[(1E)-1-(1,2-dihydroacenaphth-ylen-5-ylmethylidene)-1H-inden-3-yl]ethyl} morpholine]
Ki (CB1R; read-out: CB1R binding affinity (Ki)): 15.9 nM
Ki (CB2R; Table 1, CP55940 radioligand, read-out: CB2_KI_CP): 4.22 nM

C1=C(CCN2CCOCC2)c2ccccc2/C1=C/c1ccco1 [Compound 31, 4-{2-[(1E)-1-(furan-2-ylmethylidene)-1H-inden-3-yl]ethyl} morpholine]
Ki (CB2R): 1260 nM

CC1=C(CCN2CCOCC2)c2ccccc2/C1=C/c1cccc2ccccc12 [Compound 15, 4-{2-[(1E)-2-methyl-1-(naphthalen-1-ylmethylidene)-1H-inden-3-yl]ethyl} morpholine]
Ki (CB2R): 2.84 nM

C1=C(CCN2CCOCC2)c2ccccc2/C1=C/c1ccccc1-c1ccccc1 [Compound 16, 4-{2-[(1E)-1-[(2-phenylphenyl)methylidene]-1H-inden-3-yl]ethyl} morpholine]
Ki (CB1R; [1]): 82.9 nM
Ki (CB2R): 15.3 nM

CC1=C(CC[N+]2(C)CCOCC2)c2ccccc2/C1=C/c1cccc2ccccc12 [Compound 36, 4-methyl-4-{2-[(1E)-2-methyl-1-(naphthalen-1-ylmethylidene)-1H-inden-3-yl]ethyl} morpholin-4-ium iodide]
Ki (CB1R; [1]): 1610 nM

CCCCCCC1=C/C(=C\Cc2ccccc2)c2ccccc21 [Compound 38, (1E)-3-hexyl-1-(2-phenyl-ethylidene)-1H-indene]
Ki (CB1R): 4410 nM
Ki (CB2R): 13700 nM

Cc1ccccc1/C=C1\C=C(CCN2CCOCC2)c2ccccc21 [Compound 24, 4-{2-[(1E)-1-[(2-methylphenyl)methylidene]-1H-inden-3-yl]ethyl} morpholine]
Ki (CB1R; [1]): 623 nM
Ki (CB2R): 95.4 nM

CCOC(=O)CCCCn1cc(C(=O)c2cccc3ccccc23)c2ccccc21 [Compound 53, ethyl 5-[3-(naphthalene-1-carbonyl)-1H-indol-1-yl]pentanoate]
Ki (CB1R; [1]): 1470 nM

O=C(c1cccc2ccccc12)c1cn(CCN2CCOCC2)c2cccc(F)c12 [Compound 68, 4-fluoro-1-[2-(morpholin-4-yl)ethyl]-3-(naphthalene-1-carbonyl)-1H-indole]
Ki (CB1R; [1]): 237 nM
Ki (CB2R): 95.2 nM
